Assay results reported in PubChem BioAssay (NCI).
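Tested at 5 concentrations; 48 h exposure; 96-well plates; endpoints linearly interpolated, else capped at highest concentration. TGI denotes the concentration required for complete inhibition of growth.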

Experiments:
Assay in all cases: inhibition of tumour cell growth, NCI panel, 48 h
[1] = system: 786-0 renal
[2] = system: A498 renal
[3] = system: A549 NSCLC
[4] = system: ACHN renal
[5] = system: BT-549 breast
[6] = system: CAKI-1 renal
[7] = system: COLO 205 colon
[8] = system: DU-145 prostate
[9] = system: EKVX NSCLC
[10] = system: HCC-2998 colon
[11] = system: HCT-116 colon
[12] = system: HCT-15 colon
[13] = system: HOP-62 NSCLC
[14] = system: HOP-92 NSCLC
[15] = system: HS 578T breast
[16] = system: HT29 colon
[17] = system: IGROV1 ovarian
[18] = system: K-562 leukemia
[19] = system: M14 melanoma
[20] = system: MCF7 breast
[21] = system: MDA-MB-231 breast
[22] = system: MDA-MB-435
[23] = system: MDA-N
[24] = system: MOLT-4 leukemia
[25] = system: NCI-H226 lung
[26] = system: NCI-H23 lung
[27] = system: NCI-H460 lung
[28] = system: NCI-H522 lung
[29] = system: OVCAR-4 ovarian
[30] = system: OVCAR-5 ovarian
[31] = system: OVCAR-8 ovarian
[32] = system: PC-3 prostate
[33] = system: RPMI-8226 leukemia
[34] = system: RXF 393 renal
[35] = system: SF-268 CNS
[36] = system: SF-295 CNS
[37] = system: SF-539 CNS
[38] = system: SK-MEL-2 melanoma
[39] = system: SK-MEL-28 melanoma
[40] = system: SK-MEL-5 melanoma
[41] = system: SK-OV-3 ovarian
[42] = system: SN12C renal
[43] = system: SNB-19 CNS
[44] = system: SNB-75 CNS
[45] = system: SW-620 colon
[46] = system: T-47D breast
[47] = system: TK-10 renal
[48] = system: U251 CNS
[49] = system: UACC-257 melanoma
[50] = system: UACC-62 melanoma
[51] = system: UO-31 renal
[52] = system: CCRF-CEM leukemia
[53] = system: KM12 colon
[54] = system: LOX IMVI melanoma
[55] = system: MALME-3M melanoma
[56] = system: NCI/ADR-RES ovarian
[57] = system: OVCAR-3 ovarian

C#CCCCCC#Cc1ccccc1C(=O)C=[N+]=[N-]
TGI [1]: > 100 µM | TGI [2]: > 100 µM | TGI [3]: > 100 µM | TGI [4]: > 100 µM | TGI [5]: > 100 µM | TGI [6]: > 100 µM | TGI [7]: > 100 µM | TGI [8]: > 100 µM | TGI [9]: > 100 µM | TGI [10]: > 100 µM | TGI [11]: > 100 µM | TGI [12]: > 100 µM | TGI [13]: > 100 µM | TGI [14]: > 100 µM | TGI [15]: > 100 µM | TGI [16]: > 100 µM | TGI [17]: > 100 µM | TGI [18]: > 100 µM | TGI [19]: > 100 µM | TGI [20]: > 100 µM | TGI [21]: > 100 µM | TGI [22]: > 100 µM | TGI [23]: > 100 µM | TGI [24]: > 100 µM | TGI [25]: > 100 µM | TGI [26]: > 100 µM | TGI [27]: > 100 µM | TGI [28]: > 100 µM | TGI [29]: > 100 µM | TGI [30]: > 100 µM | TGI [31]: > 100 µM | TGI [32]: > 100 µM | TGI [33]: > 100 µM | TGI [34]: > 100 µM | TGI [35]: > 100 µM | TGI [36]: > 100 µM | TGI [37]: > 100 µM | TGI [38]: > 100 µM | TGI [39]: > 100 µM | TGI [40]: > 100 µM | TGI [41]: > 100 µM | TGI [42]: > 100 µM | TGI [43]: > 100 µM | TGI [44]: > 100 µM | TGI [45]: > 100 µM | TGI [46]: > 100 µM | TGI [47]: > 100 µM | TGI [48]: > 100 µM | TGI [49]: > 100 µM | TGI [50]: > 100 µM | TGI [51]: > 100 µM

C[C@@H](CO)C1=C(O)c2ccc3c(c2C(=O)C1=O)CCCC3(C)C
TGI [1]: > 100 µM | TGI [2]: > 100 µM | TGI [3]: > 100 µM | TGI [4]: 43.2 µM | TGI [5]: > 100 µM | TGI [6]: > 100 µM | TGI [52]: 34 µM | TGI [7]: > 100 µM | TGI [8]: > 100 µM | TGI [9]: > 100 µM | TGI [11]: > 100 µM | TGI [12]: > 100 µM | TGI [13]: > 100 µM | TGI [14]: > 100 µM | TGI [15]: > 100 µM | TGI [16]: > 100 µM | TGI [17]: > 100 µM | TGI [18]: > 100 µM | TGI [53]: > 100 µM | TGI [54]: > 100 µM | TGI [19]: 40.6 µM | TGI [55]: 50 µM | TGI [21]: > 100 µM | TGI [22]: > 100 µM | TGI [23]: > 100 µM | TGI [24]: > 100 µM | TGI [25]: > 100 µM | TGI [26]: 56.1 µM | TGI [28]: 62.6 µM | TGI [56]: > 100 µM | TGI [57]: > 100 µM | TGI [29]: > 100 µM | TGI [30]: > 100 µM | TGI [31]: > 100 µM | TGI [32]: > 100 µM | TGI [33]: > 100 µM | TGI [34]: > 100 µM | TGI [35]: > 100 µM | TGI [36]: > 100 µM | TGI [38]: 84.7 µM | TGI [39]: > 100 µM | TGI [40]: > 100 µM | TGI [41]: > 100 µM | TGI [42]: > 100 µM | TGI [43]: 68.9 µM | TGI [44]: > 100 µM | TGI [45]: > 100 µM | TGI [46]: > 100 µM | TGI [47]: > 100 µM | TGI [48]: > 100 µM | TGI [49]: > 100 µM | TGI [50]: 77.4 µM | TGI [51]: > 100 µM
